Experimental data as given in PMC5880945, “D-Arg^0-Bradykinin-Arg-Arg, a Latent Vasoactive Bradykinin B2 Receptor Agonist Metabolically Activated by Carboxypeptidases” (Frontiers in Pharmacology, 2018).
“Also recorded” adds a separate entry of the source. Square brackets hold non-standard residues; d marks the D form. Peptide text beside a SMILES is read from it.

Assays:
[1] = system: GFP-tagged rabbit B2R (B2R-GFP); assay: B2R-GFP endocytosis and recycling, epifluorescence microscopy, HEK 293 cells; assay type: cell-based; conditions: 30 min; for B2R-GFP internalization with Plummer’s inhibitor, in words: Plummer’s inhibitor alone
Description: This system, based on a serum-containing culture medium, contains ACE and Arg-carboxypeptidase activities ([Bachvarov et al., 2001]; [Charest-Morin et al., 2014]). r-BK or r-BK-RR were added to 35-mm Petri dishes containing the cells with optional pre-treatment with peptidase inhibitors and the cells were observed as described after 30 min of incubation at 37°C ([Charest-Morin et al., 2014]).

[2] = target: T1, rat myc-B2R (bradykinin B2 receptor) (Rattus norvegicus, UniProt P25023); assay: [3H]BK binding competition assay; conditions: for affinity for rat B2R, in words: rat myc-B2R
T1 construct: expressed in transfected cells
T1 sequence (P25023 1-396): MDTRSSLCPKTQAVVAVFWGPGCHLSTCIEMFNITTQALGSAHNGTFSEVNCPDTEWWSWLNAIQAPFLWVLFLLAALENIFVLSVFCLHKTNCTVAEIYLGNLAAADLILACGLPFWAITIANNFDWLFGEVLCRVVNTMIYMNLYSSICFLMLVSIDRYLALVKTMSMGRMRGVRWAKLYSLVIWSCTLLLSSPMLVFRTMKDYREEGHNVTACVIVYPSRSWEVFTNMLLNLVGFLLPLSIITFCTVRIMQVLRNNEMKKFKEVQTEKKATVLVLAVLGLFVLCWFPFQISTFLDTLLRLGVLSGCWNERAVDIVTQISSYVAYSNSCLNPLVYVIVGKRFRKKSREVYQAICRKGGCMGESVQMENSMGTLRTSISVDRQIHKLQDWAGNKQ
Description: Affinity for the B2R was evaluated using a radioligand binding competition assay performed at 0°C in the presence of peptidase inhibitors that included captopril and PMSF ([Charest-Morin et al., 2014]). Briefly, the binding of 3 nM [^3H]bradykinin (Perkin Elmer Life Sciences; 90 Ci/mmol) to adherent intact Human Embryonic Kidney (HEK 293) cells stably expressing the myc-tagged rat B2R construction ([Charest-Morin et al., 2017]) was applied to construct binding competition curves for a series of unlabeled peptides.
(§1) Results are presented as means ± SEM. Radioligand binding data were fitted by non-linear regression to a one-site competition equation using a least-square method (Prism 5.0, GraphPad Software Inc., San Diego, CA, United States) and IC50 values calculated from this procedure. The same computer program was used to draw concentration-effect curves generated with the contractility assay (least square fitting of sigmoidal dose-response equation with variable slope) and to derive contractile EC50 values. Data describing the dose-response relationship of novel peptides vs. hypotension and heart rate changes, the baseline values of heart rate and mean arterial blood pressure and the effect of drugs on the hemodynamic responses to r-B K and r-BK-RR were assessed by using one-way analysis of variance (ANOVA) followed by the Dunnett’s test (repeated comparison with a common control; Prism 5.0 software).

anesthetized rats = assay: In vivo hemodynamics in anesthetized rats, dose-response; design: species or system male Sprague-Dawley rats; conditions: for hypotensive potency, r-BK vs r-BK-RR, in words: i.v. bolus 0.025–12.8 μg/kg; for heart rate response, in words / peptide doses giving hypotensive response significantly greater than vehicle: i.v. bolus; for heart rate response, in words: after brief bradycardic injection artifact, statistically significant only at the highest tested doses; for peptide doses giving hypotensive response significantly greater than vehicle: vs BSA-saline vehicle (Dunnett’s test)
Description: All surgical and experimental procedures were reviewed and approved by the Animal Care and Handling Committee of Laval University, in accordance with the Canadian Council on Animal Care. Experiments were performed on male Sprague-Dawley rats (300–375 g) purchased from Charles River Laboratories (St-Constant, QC, Canada). The rats were housed in a light-controlled (12:12-h light-dark cycle (lights on at 0600)) and temperature-regulated room (22 ± 1°C). Animals had free access to normal chow diet and tap water. They were allowed to acclimate to their environmental conditions for 1 week prior to being studied. At the end of the acclimation period, the rats were anesthetised with sodium pentobarbital (50 mg kg^-1, i.p., supplemented as required) and had one catheter implanted into the right jugular vein [for intravenous (i.v.) injection] and one into the left femoral artery [for direct and continuous measurement of blood pressure and heart rate as previously described ([Jean et al., 2016])]. Experiments started at least 20 min following the end of surgery in anesthetised rats.
Baseline measurements of heart rate and phasic and mean arterial blood pressure were recorded over a period of 15 min in anesthetized rats. A dose response curve was then obtained by recording changes in blood pressure and heart rate elicited by i.v. injection of peptide vehicle followed by increasing doses (0.025–12.8 μg/kg) of r-BK or r-BK-RR. Peptides were dissolved in isotonic saline (0.9% NaCl) containing 0.1% BSA to prevent the adsorption of peptide to the glassware and plastic surfaces. All i.v. injections were given as 100 μl boluses which were washed in with a further 100 μl of saline (the dead space of the catheter). Only one peptide was tested per group of rats and each injection started with saline-BSA 0.1% followed by the lowest dose of peptide. The next dose was administered once all recorded cardiovascular parameters had returned to baseline after the previous injection (usually 2–10 min). At the end of the experiments each animal was euthanized with an overdose of sodium pentobarbital (240 mg/kg, i.v.).
as §1

SMILES	B2R-GFP internalization, in words ([1]; 100 nM, 37°C, serum-containing culture medium, no inhibitor)	B2R-GFP internalization with Plummer’s inhibitor, in words ([1]; 100 nM, 15 min before)	proportion of cells exhibiting internalization of B2R-GFP ([1]; with enalaprilat and/or Plummer’s inhibitor (not influenced by any))	affinity for rat B2R, in words ([2]; [3H]BK binding competition)	hypotensive potency, r-BK vs r-BK-RR, in words (anesthetized rats)	heart rate response, in words (anesthetized rats)	peptide doses giving hypotensive response significantly greater than vehicle (anesthetized rats)	B2R-GFP internalization with enalaprilat + Plummer’s inhibitor, in words ([1]; 100 nM, both inhibitors 15 min before)	B2R-GFP internalization with enalaprilat, in words ([1]; 100 nM, enalaprilat alone, 15 min before)	competition on the binding of [3H]BK to B2R, in words ([2]; 100 nM)	decrease of receptor affinity (less potent) ([2]; r-BK-RR, [3H]BK binding competition, rat B2R)
N=C(N)NCCC[C@@H](N)C(=O)N[C@@H](CCCNC(=N)N)C(=O)N1CCC[C@H]1C(=O)N1CCC[C@H]1C(=O)NCC(=O)N[C@@H](Cc1ccccc1)C(=O)N[C@@H](CO)C(=O)N1CCC[C@H]1C(=O)N[C@@H](Cc1ccccc1)C(=O)N[C@@H](CCCNC(=N)N)C(=O)O [r-BK, D-Arg^0-BK] (H-[dR]RPPGFSPFR-OH)	the fluorescent receptor was internalized	no effect	> 90%	practically equal to that of BK	virtually equipotent hypotensive agents	brief tachycardic response, statistically significant only at the highest tested doses	≥ 0.4 µg/kg	–	–	–	–
N=C(N)NCCC[C@@H](N)C(=O)N[C@@H](CCCNC(=N)N)C(=O)N1CCC[C@H]1C(=O)N1CCC[C@H]1C(=O)NCC(=O)N[C@@H](Cc1ccccc1)C(=O)N[C@@H](CO)C(=O)N1CCC[C@H]1C(=O)N[C@@H](Cc1ccccc1)C(=O)N[C@@H](CCCNC(=N)N)C(=O)N[C@@H](CCCNC(=N)N)C(=O)N[C@@H](CCCNC(=N)N)C(=O)O [r-BK-RR, D-Arg^0-BK-Arg-Arg] (H-[dR]RPPGFSPFRRR-OH)	–	only a partial effect	–	direct micromolar affinity; also recorded: very little direct affinity for B2R	virtually equipotent hypotensive agents	brief tachycardic response, statistically significant only at the highest tested doses	≥ 0.4 µg/kg	suppress the effect of r-BK-RR	suppress the effect of r-BK-RR	little competition	61 fold
